Data published in patent US20090048214A1, “Methods for Treating Renal Tumors Using 2, 4-Pyrimidinediamine Drug and Prodrug Compounds” (RIGEL PHARMACEUTICALS, INC, priority 2006, published 2009).

Experiments:
[1] = system: RXF-393 kidney tumor fragments; experiment: RXF-393 renal carcinoma orthotopic xenograft study; format: in vivo, Nu/nu mice; details: for median tumor weight: following 16 days of treatment, vehicle 485 mg
Protocol: RXF-393 kidney tumor fragments were implanted intrarenally into Nu/nu mice. On days 5-20 post-implantation animals were fed the Research Diet chow containing Compound A at the following dose levels: 0 g/kg (control), 0.5 g/kg (expected dose 75 mg/kg/day), 2.0 g/kg (expected dose 300 mg/kg/day), or 3.0 g/kg (expected dose 450 mg/kg/day). Tumors were allowed to grow orthotopically, body weights were measured twice weekly, and the animals were sacrificed on Day 23. Both the implanted kidney and the unimplanted kidney were weighed, and the tumor weight is expressed as the difference in kidney weights for each animal.

[2] = detailed in US2006/0211657 A1; cited from earlier work
[3] = system: A498 renal carcinoma cells; experiment: A498 renal carcinoma subcutaneous xenograft study; format: in vivo, NCR nu/nu female mice
Protocol: NCR nu/nu female mice (8-9 weeks old, Harlan Laboratories, Madison, Wis.) were injected subcutaneously on the right hind flank with 5×10^7 A498 renal carcinoma cells in a 50:50 mixture of cells in PBS and Matrigel® (Cat# 356234, LDEV negative, BD Biosciences, Boston, Mass.). Tumor growth was determined by measuring the tumor in two dimensions (L×W) with electronic calipers (Ultra Cal IV, Fred V Fowler Co, Newton, Mass.). Volume was calculated using Study Director Animal Study Management Software (Studylog Systems, South San Francisco, Calif.) as follows: V=(L×W^2)/2,where L and W are the tumor length and width, respectively. Animals were randomized by stratified tumor size and treatment was initiated when the average tumor size was approximately 82 mm^3 (Study Day 0, 17 days post-injection). Test compound was administered ad libitum in the feed as a formulation of 0, 0.5, 2, or 3 g Compound A per kg of AIN-76A rodent diet (Research Diets, Inc, New Brunswick, N.J.). Animals were weighed and tumors measured twice weekly from the day of cell injection to study termination.

Question: What does the source list for COc1cc(Nc2ncc(F)c(Nc3ccc4c(n3)N(COP(=O)(O)O)C(=O)C(C)(C)O4)n2)cc(OC)c1OC [Compound A]?
Answer: reduction in tumor weight vs vehicle ([1]; high (3 g/kg) and mid (2 g/kg) dose groups, 16 days of treatment): ~10 fold; median tumor weight ([1]; high dose 3 g/kg food (450 mg/kg/dose), p<0.0001): 63 mg; reduction in median tumor weight compared with vehicle ([1]; low dose group (75 mg/kg/dose, 0.5 g Compound A/kg food)): approximately 25%; median tumor weight ([1]; mid dose 2 g/kg food (300 mg/kg/dose), p<0.0006): 74 mg; metabolism of prodrug in vivo [2]: metabolize in vivo to the corresponding active 2,4-pyrimidinediamine compound, Compound 1; Mean body weights ([3]; 0, 0.5, 2.0, 3.0 g Compound A/kg feed groups): not different among the groups; effect on tumor growth, dose dependence ([3]; 0.5, 2.0, 3.0 g Compound A/kg feed): dose-dependent effect on tumor growth was observed; %T/C ([3]; 2.0 g Compound A/kg feed, Day 23): 62%; mean tumor volume ([3]; 2.0 g Compound A/kg feed, by Day 23, control 665, p>0.05): 485 mm^3; mean tumor volume ([3]; 3.0 g Compound A/kg feed ad libitum, after 24 days of treatment, vehicle 665, p<0.05): 372 mm^3; median change in tumor volume, treated relative to control (% T/C) ([3]; 3.0 g Compound A/kg feed, after 24 days of treatment): 35%
